Data as given in patent publication US11213512B2, “Bis-amino acid based compound and use thereof” (THE CURATORS OF THE UNIVERSITY OF MISSOURI, priority 2016, dated 2022).
Read-outs that look alike come from different tables or passages of the source.

Tests used:
[1] = test system: S. aureus (ATCC Accession No. 29213); experiment: MIC, CLSI/NCCLS broth microdilution; assay type: cell-based, Staphylococcus aureus; settings: Staphylococcus aureus, read-out: Minimal Inhibitory Concentration (MIC) S. aureus
Description: Two different strains of E. coli (Gram-negative) were used. The laboratory strain of E. coli, K-12 (ATCC Accession No. 700926), was used for preliminary MIC determinations. The tetracycline resistant strain of E. coli (Tet^R) was prepared by transforming competent JM109 E. coli (Promega) with the pBR322 plasmid (Carolina Biologicals) using the manufacturers protocol. This plasmid contains two resistance genes: the tetA gene expresses the tetracycline resistance TetA efflux pump (Sapunaric and Levy, Microbiol. 2005, 151, 2315-2322) and the amp^R gene expresses a β-lactamase enzyme (Bolivar, et al; Gene 1977, 2, 95-113) that cleaves the four membered ring of penicillin derivatives. The resulting E. coli, which we designate Tet^R E. coli, is both tetracycline and ampicillin resistant. The TetA efflux pump belongs to the major facilitator superfamily (MFS), spans the cytoplasmic membrane, and transports tetracycline from the cell cytoplasm to the periplasmic space (Thanassi, et al., J. Bacteriol. 1995, 177, 998-1007). This active efflux utilizes the proton gradient as an energy source (Levy, Antimicrob. Agents Chemother. 1992, 36, 695-703). One Gram-positive strain, S. aureus (ATCC Accession No. 29213), used for MIC study expresses the MFS type NorA efflux pump and is methicillin sensitive. MFS type efflux pumps are clinically relevant for resistance in both Gram-positive and Gram-negative bacteria (Sun, et al., Biochem. Biophys. Res. Commun. 2014, 453, 254-267). A Staphylococcus aureus 1199B strain that overexpresses the NorA efflux pump was also used to conduct checkerboard experiments (see, Example 8 below). This strain of S. aureus 1199B is resistant to both norfloxacin and ethidium bromide.
K-12 E. coli and S. aureus were acquired from ATCC. The S. aureus strain was used in the BSL-2 facility. K-12 E. coli was grown in L. B. Miller media (Sigma-Aldrich) and S. aureus was grown in cation adjusted MHII media (Sigma-Aldrich). Tet^R E. coli was grown in L. B. Miller media containing 100 μg/mL Ampicillin.
(§1) MIC experiments were performed as described in the Clinical and Laboratory Standards Institute (CLSI) standard microdilution protocols. Bacteria was grown overnight from one CFU in media without antibiotics. Tet^R E. coli was grown in media containing 100 μg/mL Ampicillin. On the day of experiment, bacteria were knocked back to O.D. 600 nm=0.550 in the same media. These exponential phase bacteria were then diluted in antibiotics-free media to get […]. In a 96-well plate either L. B. Miller or MHII media was added followed by serially diluted compounds 1-11, tetracycline, or ampicillin. All the tryptophan based compounds were dissolved in DMSO and the final concentration of DMSO in each well was kept constant at 0.5% (v/v).
(§2) For the combination experiments, first, the BT or control was added to the media in the well followed by the antibiotics. The contents of the well were mixed before adding 20 μL of bacteria to get 4×10^5 CFU/mL per well. The plates were incubated at 37° C., 200 RPM for 24 hours before collecting results on the Biotek Cytation 3 plate reader. No more than three plates were stacked on top of each other at a time. Optical density of the wells was determined at λ=600 nm. Cells alone were considered as 0% inhibition and media alone was considered as 100% inhibition. Any inhibition greater than 80% was considered as the MIC. The results were reproduced three times before reporting.
All minimum inhibitory concentration (MIC) values for compounds 1-11 were determined according to the methods prescribed by the National Committee for Clinical Laboratory Standards (NCCLS, Methods for Dilution Antimicrobial Susceptibility Tests for Bacteria that grow aerobically; National Committee for Clinical Laboratory Standards 2000, 5th Edition, M7-A5). […]

Tet^R E. coli = experiment: Recovery of tetracycline activity (co-administration, MIC of tetracycline); assay type: cell-based, Escherichia coli
Description: as §1, §2
First, MICs were determined for compounds 2, 3, 5, 6, 7, and 10 against Tet^R E. coli. Compounds 6 (para-Ph) and 7 (n-C3) were also included as controls. The MICs against Tet^R E. coli were refined compared to the power series and are reported as a range in Table 1 above. The MICs of tetracycline and ampicillin against Tet^R E. coli were 900±100 μM and >1000 μM, respectively. For comparison, the MIC for tetracycline against non-resistant E. coli K-12 is ˜3 μM. Ampicillin was used to maintain selective pressure for the expression of pBR322 plasmid. Ampicillin was omitted from experiments that contained tetracycline. Next, the MIC of tetracycline was determined when co-administered with 2, 3, 5, 6, 7, or 10. The results are represented as the MIC of tetracycline in the presence of the indicated BTs. The fold-recovery was determined by dividing the MIC of tetracycline when used alone by the MIC of tetracycline determined in the presence of the compounds.
The fractional inhibitory concentration (FIC) is often used as a measure of synergism or antagonism in comparing two or more compounds (Berenbaum, Pharmacol. Rev. 1989, 41, 93-141). The FIC is the sum of the fraction of the MIC for each compound used. Synergy is defined broadly as FIC<1, or more conservatively as FIC≤0.5. Under the broad definition, all compounds tested can be said to have at least moderate synergy with tetracycline. All arene-based compounds fit the more conservative definition of synergy with FIC values of 0.5 or less at the tested concentrations.

[2] = ATCC29213, >80% growth inhibition, 24 h, 37° C.
[3] = compound at ¼ MIC (2: 12, 3: 7, 5: 14, 6: 30, 7: 30, 10: 2.5 μM)
[4] = compound at ¼ MIC (2: 12, 3: 7, 5: 14, 6: 30, 7: 30, 10: 2.5 μM), tetracycline alone 900 μM
[5] = compound at ½ MIC (2: 24, 3: 14, 5: 28, 6: 60, 7: 60, 10: 5 μM)
[6] = compound at ½ MIC (2: 24, 3: 14, 5: 28, 6: 60, 7: 60, 10: 5 μM), tetracycline alone 900 μM
[7] = compound at 14 μM (single comparison concentration)
[8] = compound at 5 μM (single comparison concentration)

Structure (SMILES) | MIC [1, 2] [µM] | FIC (fractional inhibitory concentration) with tetracycline (Tet^R E. coli; [3]) | MIC [Tet] (tetracycline in the presence of the compound) (Tet^R E. coli; [3]) [µM] | Fold Recovery of tetracycline activity (Tet^R E. coli; [4]) | FIC (fractional inhibitory concentration) with tetracycline (Tet^R E. coli; [5]) | MIC [Tet] (tetracycline in the presence of the compound) (Tet^R E. coli; [5]) [µM] | Fold Recovery of tetracycline activity (Tet^R E. coli; [6]) | melting point | FIC (fractional inhibitory concentration) with tetracycline (Tet^R E. coli; [7]) | Fold Recovery of tetracycline activity (Tet^R E. coli; [7]) | MIC [Tet] (tetracycline in the presence of the compound) (Tet^R E. coli; [7]) [µM] | FIC (synergy with tetracycline) (Tet^R E. coli; at the tested concentrations, synergy FIC<1 (broad) or FIC≤0.5 (conservative)) | recovery of tetracycline activity (Tet^R E. coli; compound at ½ and ¼ of its MIC) [fold] | MIC ([1]; ATCC29213, 24 h) [µM] | FIC (fractional inhibitory concentration) with tetracycline (Tet^R E. coli; [8]) | Fold Recovery of tetracycline activity (Tet^R E. coli; [8]) | MIC [Tet] (tetracycline in the presence of the compound) (Tet^R E. coli; [8]) [µM]
Cl.Cl.N[C@H](Cc1c[nH]c2ccccc12)C(=O)Nc1cccc(NC(=O)[C@H](N)Cc2c[nH]c3ccccc23)c1 [Compound 3, (2R,2′R)-1,1′-(1,3-Phenylenebis(azanediyl))bis(3-(1H-indol-3-yl)-1-oxopropan-2-aminium) chloride] | 32 | 0.50 | 225 | 4-fold | 0.63 | 112.5 | 8-fold | 242 °C (dec.) |  |  |  |  |  |  |  |  | 
Cl.Cl.N[C@@H](Cc1c[nH]c2ccccc12)C(=O)Nc1cccc(NC(=O)[C@@H](N)Cc2c[nH]c3ccccc23)c1 [Compound 2, (2S,2′S)-1,1′-(1,3-Phenylenebis(azanediyl))bis(3-(1H-indol-3-yl)-1-oxopropan-2-aminium) chloride] | 32 | 0.38 | 112.5 | 8-fold | 0.56 | 56.25 | 16-fold | 223 °C (dec.) | 0.42 | 8-fold | 112.5 |  |  |  |  |  | 
Cl.Cl.N[C@H](Cc1c[nH]c2ccccc12)C(=O)NCCCCCCCCCCCCNC(=O)[C@@H](N)Cc1c[nH]c2ccccc12 [Compound 10, (S)-1-((12-((R)-2-Ammonio-3-(1H-indol-3-yl)propanamido)dodecyl)amino)-3-(1H-indol-3-yl)-1-oxopropan-2-aminium chloride] | 4 | 0.75 | 450 | 2-fold | 0.75 | 225 | 4-fold | 158 °C (dec.) |  |  |  | ≥ 0.75 | 2 to 4 |  |  |  | 
Cl.Cl.N[C@@H](Cc1c[nH]c2ccccc12)C(=O)NCCCNC(=O)[C@@H](N)Cc1c[nH]c2ccccc12 [Compound 7, (2S,2′S)-1,1′-(Propane-1,3-diylbis(azanediyl))bis(3-(1H-indol-3-yl)-1-oxopropan-2-aminium) chloride] |  | 0.38 | 112.5 | 8-fold | 0.63 | 112.5 | 8-fold | 234 °C (dec.) |  |  |  |  |  | > 128 | 0.54 | 2-fold | 450
Cl.Cl.N[C@@H](Cc1c[nH]c2ccccc12)C(=O)Nc1ccc(NC(=O)[C@@H](N)Cc2c[nH]c3ccccc23)cc1 [Compound 6, (2S,2′S)-1,1′-(1,4-Phenylenebis(azanediyl))bis(3-(1H-indol-3-yl)-1-oxopropan-2-aminium) chloride] | 128 | 0.50 | 225 | 4-fold | 0.63 | 112.5 | 8-fold | 237 °C (dec.) | 0.62 | 2-fold | 450 |  |  |  |  |  | 
Cl.Cl.N[C@@H](Cc1c[nH]c2ccccc12)C(=O)Nc1ccccc1NC(=O)[C@@H](N)Cc1c[nH]c2ccccc12 [Compound 5, (2S,2′S)-1,1′-(1,2-Phenylenebis(azanediyl))bis(3-(1H-indol-3-yl)-1-oxopropan-2-aminium) chloride] | 32 | 0.50 | 225 | 4-fold | 0.63 | 112.5 | 8-fold | 201 °C (dec.) |  |  |  |  |  |  |  |  | 
